Activity calls are given as the source filed them.
Columns and labels:
Troponin, cardiac muscle = Troponin, cardiac muscle (Homo sapiens, UniProt P19429+P45379+P63316); assay: Fluorescence-based biochemical high throughput dose response assay for activators of the calcium sensitivity of cardiac Regulated Thin Filaments (RTF). [Related pubchem assays (depositor defined):AID493008, AID493018, AID504382, AID504383]; assay type: protein-complex assay
CAAX prenyl protease 2 [1] = biological target: T1, CAAX prenyl protease 2 (Homo sapiens, UniProt Q9Y256); assay: human Rce1 protease inhibitors, dose response, biochemical, yeast membranes, quenched-peptide fluorescence, cherry-pick (AID 588849)
T1 sequence (Q9Y256 whole entry): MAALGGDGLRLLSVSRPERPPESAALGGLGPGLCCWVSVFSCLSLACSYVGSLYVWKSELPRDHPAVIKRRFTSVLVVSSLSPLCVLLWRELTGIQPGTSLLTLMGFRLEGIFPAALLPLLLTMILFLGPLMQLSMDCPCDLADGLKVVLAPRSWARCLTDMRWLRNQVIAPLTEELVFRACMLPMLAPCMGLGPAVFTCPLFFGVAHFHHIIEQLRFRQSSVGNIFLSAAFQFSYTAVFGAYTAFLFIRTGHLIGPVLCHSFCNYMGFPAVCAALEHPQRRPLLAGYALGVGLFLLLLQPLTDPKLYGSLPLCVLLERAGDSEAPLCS

HEK293 [2] = assay: inhibitors of LMP1-driven NF-kB reporter, dose response, cell-based, HEK293, luciferase, cherry-pick (AID 588343); assay type: functional; conditions: Homo sapiens
[3] = biological target: T2, Replicative DNA helicase DnaB (Mycobacterium tuberculosis, UniProt P9WMR3); assay: DnaB intein splicing inhibitors, dose response, biochemical, cell-free fluorescence (AID 449749); assay type: functional
T2 sequence (P9WMR3 whole entry): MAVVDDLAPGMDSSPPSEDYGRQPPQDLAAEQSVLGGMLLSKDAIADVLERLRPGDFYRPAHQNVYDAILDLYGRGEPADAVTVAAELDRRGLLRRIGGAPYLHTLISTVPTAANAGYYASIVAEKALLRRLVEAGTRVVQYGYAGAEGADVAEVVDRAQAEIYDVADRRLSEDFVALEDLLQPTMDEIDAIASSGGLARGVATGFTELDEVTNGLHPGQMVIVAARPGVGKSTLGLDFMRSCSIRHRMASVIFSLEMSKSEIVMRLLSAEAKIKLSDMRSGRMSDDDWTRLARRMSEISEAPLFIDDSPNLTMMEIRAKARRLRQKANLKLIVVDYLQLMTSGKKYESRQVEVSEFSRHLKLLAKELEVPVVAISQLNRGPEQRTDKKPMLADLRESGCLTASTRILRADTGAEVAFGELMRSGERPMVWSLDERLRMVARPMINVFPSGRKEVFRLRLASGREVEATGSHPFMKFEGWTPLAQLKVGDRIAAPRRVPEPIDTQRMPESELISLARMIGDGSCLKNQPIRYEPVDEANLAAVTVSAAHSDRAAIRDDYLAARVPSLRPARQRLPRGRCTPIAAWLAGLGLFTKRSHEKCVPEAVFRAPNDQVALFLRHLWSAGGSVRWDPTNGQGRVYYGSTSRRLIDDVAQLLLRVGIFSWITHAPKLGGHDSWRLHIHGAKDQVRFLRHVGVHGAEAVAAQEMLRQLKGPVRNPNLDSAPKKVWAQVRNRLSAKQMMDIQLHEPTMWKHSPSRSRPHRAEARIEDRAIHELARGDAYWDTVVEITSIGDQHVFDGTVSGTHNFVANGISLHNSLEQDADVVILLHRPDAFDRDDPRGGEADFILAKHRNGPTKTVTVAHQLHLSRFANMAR

Protein RecA = biological target: T3, Protein RecA (Mycobacterium tuberculosis, UniProt P9WHJ3); assay: Fluorescence Cell-Free Homogeneous Dose Retest to Identify Inhibitors of RecA-Intein Splicing Activity. [Related pubchem assays (depositor defined):AID2097, AID2223, AID489010, AID492950]; assay type: functional
T3 sequence (P9WHJ3 whole entry): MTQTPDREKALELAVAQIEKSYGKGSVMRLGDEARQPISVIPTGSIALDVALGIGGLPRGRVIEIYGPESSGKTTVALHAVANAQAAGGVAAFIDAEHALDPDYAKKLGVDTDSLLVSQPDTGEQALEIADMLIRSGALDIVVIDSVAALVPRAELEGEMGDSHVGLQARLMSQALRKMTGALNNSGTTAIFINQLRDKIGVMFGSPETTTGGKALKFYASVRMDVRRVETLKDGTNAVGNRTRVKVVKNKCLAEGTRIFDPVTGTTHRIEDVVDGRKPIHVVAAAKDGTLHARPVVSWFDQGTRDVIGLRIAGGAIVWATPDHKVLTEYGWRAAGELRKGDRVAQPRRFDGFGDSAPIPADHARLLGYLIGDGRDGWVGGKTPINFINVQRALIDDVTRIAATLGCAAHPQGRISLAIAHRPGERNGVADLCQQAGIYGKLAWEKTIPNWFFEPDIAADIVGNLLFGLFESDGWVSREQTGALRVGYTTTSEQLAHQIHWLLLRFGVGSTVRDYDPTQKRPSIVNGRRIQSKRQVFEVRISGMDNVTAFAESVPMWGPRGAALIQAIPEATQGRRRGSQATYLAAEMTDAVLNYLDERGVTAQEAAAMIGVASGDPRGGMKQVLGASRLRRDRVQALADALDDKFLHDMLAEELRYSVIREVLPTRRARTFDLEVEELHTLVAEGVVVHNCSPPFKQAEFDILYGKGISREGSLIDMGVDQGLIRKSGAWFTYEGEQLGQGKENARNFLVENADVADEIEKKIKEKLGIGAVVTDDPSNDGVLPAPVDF

CAAX prenyl protease 2 [4] = biological target: T4, CAAX prenyl protease 2 (Saccharomyces cerevisiae S288c, UniProt Q03530); assay type: biochemical
T4 sequence (Q03530 whole entry): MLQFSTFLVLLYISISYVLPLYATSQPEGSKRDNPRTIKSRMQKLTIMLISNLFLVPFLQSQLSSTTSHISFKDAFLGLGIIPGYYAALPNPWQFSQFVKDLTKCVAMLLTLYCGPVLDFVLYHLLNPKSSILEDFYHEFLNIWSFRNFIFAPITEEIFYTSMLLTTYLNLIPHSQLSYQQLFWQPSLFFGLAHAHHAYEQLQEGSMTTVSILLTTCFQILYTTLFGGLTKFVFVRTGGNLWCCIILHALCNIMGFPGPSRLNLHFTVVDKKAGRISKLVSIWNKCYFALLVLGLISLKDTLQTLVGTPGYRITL

[5] = tested on: Streptococcus sp. 'group A'; assay: growth inhibition of control SK(-) GAS strain, dose response, counter-screen for streptokinase expression inhibitor project, luminescence, kanamycin, BacTiterGlo, confirmation (AID 1900); assay type: functional, organism-based
Streptokinase A = biological target: T5, Streptokinase A (Streptococcus pyogenes serotype M1, UniProt P10520); assay: S. pyogenes streptokinase expression inhibitors, potency, dose response, plasminogen activation absorbance, OD405 (AID 1914); assay type: functional, Streptococcus pyogenes M1 GAS;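 note: secreted streptokinase activity via plasminogen activation per viability signal from cell pellet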
T5 sequence (P10520 whole entry): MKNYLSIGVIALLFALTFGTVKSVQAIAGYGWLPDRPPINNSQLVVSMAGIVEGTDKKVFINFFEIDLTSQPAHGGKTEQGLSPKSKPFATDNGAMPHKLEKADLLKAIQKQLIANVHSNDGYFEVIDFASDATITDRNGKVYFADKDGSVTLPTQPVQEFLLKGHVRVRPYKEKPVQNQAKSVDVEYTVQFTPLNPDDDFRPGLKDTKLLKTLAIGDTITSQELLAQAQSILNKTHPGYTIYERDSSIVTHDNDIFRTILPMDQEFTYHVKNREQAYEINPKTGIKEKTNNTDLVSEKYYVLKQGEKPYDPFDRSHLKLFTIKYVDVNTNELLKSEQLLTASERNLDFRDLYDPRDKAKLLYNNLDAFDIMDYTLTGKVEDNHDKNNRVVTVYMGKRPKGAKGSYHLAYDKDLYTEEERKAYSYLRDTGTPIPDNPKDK

Streptococcus = assay: Group A Streptococcus viability loss, dose response, counter-screen for streptokinase expression inhibitor project, luminescence, BacTiterGlo (AID 1915); assay type: functional, organism-based;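 note: potency for reduction of bacterial viability or growth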
HEK293 [6] = assay: NOD1 signaling inhibitors, primary screen, cell-based, luminescence, uHTS (AID 1578); assay type: functional; conditions: Homo sapiens
HEK293 [7] = assay: cells; assay type: functional, cell-based; conditions: Homo sapiens
HEK293 [8] = assay: cells; assay type: functional, cell-based; conditions: Homo sapiens; remark: listed apart in the source
HEK293 [9] = assay: NOD2 signaling inhibitors in MDP-stimulated cells, cell-based, uHTS, luminescence (AID 2001); assay type: functional; conditions: Homo sapiens
[10] = cytotoxicity in HEK-293T cells, dose response, cytotoxicity control for BCR NF-kB inhibitor project, luminescence, B-cell screen hits (AID 489021); assay type: functional, cell-based;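 note: HEK-293T cells carrying an NF-kB luciferase reporter; cells exposed to compound for about 14 hours before viability readout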
INS1 = assay: beta cell apoptosis inhibitors, cytokine rescue, dose response, luminescence, retest (AID 449756); assay type: functional, cell-based; conditions: Rattus norvegicus;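 note: cell death triggered by IL-1 beta plus TNF-alpha plus IFN-gamma mixture; protective hits raise ATP signal compared with cytokine alone wells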
[11] = biological target: T6, COUP transcription factor 2 (Homo sapiens, UniProt P24468); assay: Luminescence-based cell-based high throughput dose response assay to identify inhibitors of COUP-TFII (NR2F2).; assay type: functional;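 note: HEK293 cells transiently cotransfected with COUP-TFII expression vector and reporter; luciferase reporter luminescence driven by COUP-TFII from the pX2-168 reporter plasmid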
T6 sequence (P24468 whole entry): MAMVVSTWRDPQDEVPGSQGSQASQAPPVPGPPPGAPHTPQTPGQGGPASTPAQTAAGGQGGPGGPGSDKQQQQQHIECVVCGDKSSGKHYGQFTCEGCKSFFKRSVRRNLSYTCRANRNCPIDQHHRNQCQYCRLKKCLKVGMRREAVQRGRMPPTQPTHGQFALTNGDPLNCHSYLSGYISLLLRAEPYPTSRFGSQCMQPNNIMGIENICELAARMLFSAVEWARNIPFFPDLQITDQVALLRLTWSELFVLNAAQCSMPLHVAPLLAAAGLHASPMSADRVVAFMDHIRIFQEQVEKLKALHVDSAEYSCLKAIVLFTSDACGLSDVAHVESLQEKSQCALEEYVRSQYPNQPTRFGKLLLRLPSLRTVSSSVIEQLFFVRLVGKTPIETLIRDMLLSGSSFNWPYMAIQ

Tumor necrosis factor = Tumor necrosis factor (Homo sapiens, UniProt P01375); assay: TNFa-triggered NF-kB activation inhibitors, SAR follow-up, cell-based, revised (AID 2337); assay type: functional
[12] = biological target: T7, Nucleotide-binding oligomerization domain-containing protein 1 (Homo sapiens, UniProt Q9Y239); assay: NOD1 signaling inhibitors, SAR follow-up, revised (AID 2333); assay type: functional
T7 sequence (Q9Y239 whole entry): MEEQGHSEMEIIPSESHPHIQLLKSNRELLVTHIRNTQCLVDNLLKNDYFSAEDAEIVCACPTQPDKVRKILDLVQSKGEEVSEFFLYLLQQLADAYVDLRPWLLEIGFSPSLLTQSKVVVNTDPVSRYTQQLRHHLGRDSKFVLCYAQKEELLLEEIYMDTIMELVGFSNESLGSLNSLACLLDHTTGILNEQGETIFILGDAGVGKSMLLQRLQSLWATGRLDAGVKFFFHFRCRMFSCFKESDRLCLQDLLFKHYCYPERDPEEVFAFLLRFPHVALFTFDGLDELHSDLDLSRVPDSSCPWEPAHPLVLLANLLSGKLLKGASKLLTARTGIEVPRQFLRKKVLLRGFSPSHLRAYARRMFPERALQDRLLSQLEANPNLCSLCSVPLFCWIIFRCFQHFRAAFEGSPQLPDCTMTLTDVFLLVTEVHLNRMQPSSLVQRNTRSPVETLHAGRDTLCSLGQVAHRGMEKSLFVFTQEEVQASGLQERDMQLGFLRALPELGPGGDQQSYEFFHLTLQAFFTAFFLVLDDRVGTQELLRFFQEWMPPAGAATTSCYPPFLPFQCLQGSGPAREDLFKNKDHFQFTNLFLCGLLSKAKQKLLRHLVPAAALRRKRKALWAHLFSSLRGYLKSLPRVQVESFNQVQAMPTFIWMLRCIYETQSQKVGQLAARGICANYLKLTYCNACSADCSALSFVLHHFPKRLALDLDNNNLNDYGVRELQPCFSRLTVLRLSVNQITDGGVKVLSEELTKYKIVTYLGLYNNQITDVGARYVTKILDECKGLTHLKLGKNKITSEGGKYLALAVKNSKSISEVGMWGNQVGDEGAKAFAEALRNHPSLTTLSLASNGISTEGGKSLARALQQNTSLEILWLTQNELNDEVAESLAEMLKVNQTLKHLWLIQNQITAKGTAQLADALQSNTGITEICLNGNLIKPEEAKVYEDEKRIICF

HEK293 [13] = assay: cells; conditions: Homo sapiens

## Cn1cnnc1Sc1nc2ccccc2nc1NS(=O)(=O)c1ccccc1
Troponin, cardiac muscle
  EC50: > 71.5 µM (inactive)

## Cc1ccc(C)c(C(=O)CSc2nnc(C(C)C)[nH]2)c1
Troponin, cardiac muscle
  EC50: > 71.5 µM (inactive)

## Cc1cccn2c(=O)c(/C=C3\SC(=S)N(CC(C)C)C3=O)c(NCCCOC(C)C)nc12
Troponin, cardiac muscle
  EC50: 0.287 µM (active)

## CCOc1ccc(-c2nc(CCl)cs2)cc1OC
CAAX prenyl protease 2 [1]
  AC50: > 100 µM (inactive)

## Cc1cc(C)n(-c2ccc(NN=C(C#N)C#N)cc2)n1
HEK293 [2]
  AC50: 1.82 µM (active)
[3]
  AC50: 5.45 µM (active)
Protein RecA
  EC50: 9.25 µM (active)

## COc1ccc(-n2nc(C(=O)NCC(=O)N3CCC(C)CC3)c3ccccc3c2=O)cc1
CAAX prenyl protease 2 [4]
  AC50: 3.87 µM (active)

## C=C(C)CSc1nc2sc3c(c2c(=O)n1-c1ccc(OC)cc1)CCN(C)C3
CAAX prenyl protease 2 [4]
  AC50: 3.45 µM (active)

## COc1ccc(-c2oc3ncn(Cc4ccco4)c(=N)c3c2-c2ccc(OC)cc2)cc1
[5]
  EC50: 6.01 µM (active)
Streptokinase A
  EC50: 14.8 µM (active)
Streptococcus
  EC50: > 150 µM (not active)
CAAX prenyl protease 2 [1]
  AC50: 79.2 µM (active)

## COc1ccc(NS(=O)(=O)c2ccc(-c3coc(C)n3)cc2)cc1OC
HEK293 [6]
  EC50: 1.1 µM (active)
HEK293 [7]
  IC50: 4.75 µM (active)
HEK293 [8]
  IC50: > 20 µM (inactive)
HEK293 [9]
  IC50: 6.82 µM (active)
[10]
  IC50: > 80 µM (inactive)
INS1
  AC50: 2.88 µM (active)
[11]
  IC50: 5.85 µM (active)

## COc1ccc(-c2nc(CN3CCN(c4ncnc5ccccc45)CC3)c(C)o2)cc1
Tumor necrosis factor
  IC50: 4.08 µM (active)
[12]
  IC50: 3.13 µM (active)
HEK293 [13]
  IC50: 11.9 µM (active)

## CCC(=O)N1c2ccc(S(=O)(=O)N3CCN(c4ccc(C(C)=O)cc4)CC3)cc2CC1C (configuration not stated)
Tumor necrosis factor
  IC50: 1.63 µM (active)
[12]
  IC50: 2 µM (active)
HEK293 [13]
  IC50: 14.7 µM (active)

## CS(=O)(=O)Cc1ccc(C(=O)N(CCc2ccccc2)Cc2ccccc2)cc1
CAAX prenyl protease 2 [1]
  AC50: 35.8 µM (active)

— ChEMBL document CHEMBL1201862, “PubChem BioAssay data set” (2004)
